# Results: patent US8324248B2, “Piperidine derivatives as NK3 receptor antagonists” (Hoffmann-La Roche Inc., priority 2009, dated 2012)
# Target: T1, recombinant human NK3 receptor (Homo sapiens, UniProt P29371)
# T1 construct: expressed in transfected cells; host or cells: HEK293 cells (transient expression), membranes
# T1 sequence (P29371 1-465): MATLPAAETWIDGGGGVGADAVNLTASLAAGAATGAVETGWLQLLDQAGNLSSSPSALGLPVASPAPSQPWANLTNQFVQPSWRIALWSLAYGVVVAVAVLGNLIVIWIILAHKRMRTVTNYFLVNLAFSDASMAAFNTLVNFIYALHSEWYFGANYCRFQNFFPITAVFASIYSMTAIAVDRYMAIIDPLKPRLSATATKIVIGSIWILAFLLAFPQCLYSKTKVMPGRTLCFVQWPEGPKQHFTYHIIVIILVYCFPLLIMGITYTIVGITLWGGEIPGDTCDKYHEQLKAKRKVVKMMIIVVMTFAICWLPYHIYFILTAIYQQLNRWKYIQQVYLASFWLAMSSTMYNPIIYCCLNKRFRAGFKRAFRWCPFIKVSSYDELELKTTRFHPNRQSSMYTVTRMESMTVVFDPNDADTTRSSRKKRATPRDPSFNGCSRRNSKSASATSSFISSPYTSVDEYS
# Test: [3H]SR142801 competition binding assay, hNK3 receptor binding
# Conditions: [3H]SR142801 displacement; membranes from HEK293 cells transiently expressing recombinant human NK3 receptor; Ki by Cheng-Prussoff from IC50
# Protocol: The compounds were investigated in accordance with the tests given hereinafter. [^3H]SR142801 competition binding assay hNK3 receptor binding experiment were performed using [^3H]SR142801 (Catalog No. TRK1035, specific activity: 74.0 Ci/mmol, Amersham, GE Healthcare UK limited, Buckinghamshire, UK) and membrane isolated from HEK293 cells transiently expressing recombinant human NK3 receptor. After thawing, the membrane homogenates were centrifuged at 48,000×g for 10 min at 4° C., the pellets were resuspended in the 50 mM Tris-HCl, 4 mM MnCl2, 1 μM phosphoramidon, 0.1% BSA binding buffer at pH 7.4 to a final assay concentration of 5 μg protein/well. For inhibition experiments, membranes were incubated with [^3H]SR142801 at a concentration equal to KD value of radioligand and 10 concentrations of the inhibitory compound (0.0003-10 μM) (in a total reaction volume of 500 μl) for 75 min at room temperature (RT). At the end of the incubation, membranes were filtered onto unitfilter (96-well white microplate with bonded GF/C filter preincubated 1 h in 0.3% PEI+0.3% BSA, Packard BioScience, Meriden, Conn.) with a Filtermate 196 harvester (Packard BioScience) and washed 4 times with ice-cold 50 mM Tris-HCl, pH 7.4 buffer. Nonspecific binding was measured in the presence of 10 μM SB222200 for both radioligands. The radioactivity on the filter was counted (5 min) on a Packard Top-count microplate scintillation counter with quenching correction after addition of 45 μl of microscint 40 (Can berra Packard S. A., Zürich, Switzerland) and shaking for 1 h. Inhibition curves were fitted according to the Hill equation: y=100/(1+(x/IC50)^nH), where nH=slope factor using Excel-fit 4 software (Microsoft). IC50 values were derived from the inhibition curve and the affinity constant (Ki) values were calculated using the Cheng-Prussoff equation Ki=IC50/(1+[L]/KD) where [L] is the concentration of radioligand and KD is its dissociation constant at the receptor, derived from the saturation isotherm. All experiments were performed in duplicate and the mean±standard error (SEM) of the individual Ki values was calculated.
row,Compound,Ki [nM]
1,"C[C@H](Oc1ccc(C#N)cc1)[C@H]1CCN(C(=O)C2CCN(c3ccc(C#N)cn3)CC2)C[C@@H]1c1ccc(Cl)cc1 [Example 51, 4-{(3S,4S)-3-(4-Chloro-phenyl)-4-[(S)-1-(4-cyano-phenoxy)-ethyl]-piperidine-1-carbonyl}-3,4,5,6-tetrahydro-2H-[1,2′]bipyridinyl-5′-carbonitrile]",1.9
2,"C[C@H](Oc1ncc(F)cn1)[C@H]1CCN(C(=O)C2CCN(c3ccc(C#N)cn3)CC2)C[C@@H]1c1ccc(Cl)cc1 [Example 61, 4-{(3S,4S)-3-(4-Chloro-phenyl)-4-[(S)-1-(5-fluoro-pyrimidin-2-yloxy)-ethyl]-piperidine-1-carbonyl}-3,4,5,6-tetrahydro-2H-[1,2′]bipyridinyl-5′-carbonitrile]",1.5
3,"C[C@H](Oc1ccc(C#N)cn1)[C@H]1CCN(C(=O)C2CCN(C(=O)C3(C)CC3)CC2)C[C@@H]1c1ccc(F)c(F)c1 [Example 66, 6-((S)-1-{(3S,4S)-3-(3,4-Difluoro-phenyl)-1-[1-(1-methyl-cyclopropanecarbonyl)-piperidine-4-carbonyl]-piperidin-4-yl}-ethoxy)-nicotinonitrile]",4.6
4,"C[C@H](Oc1ccc(C#N)cn1)[C@H]1CCN(C(=O)C2CCN(C(=O)C3(C)CC3)CC2)C[C@@H]1c1ccc(Cl)cc1 [Example 23, 6-((S)-1-{(3S,4S)-3-(4-Chloro-phenyl)-1-[1-(1-methyl-cyclopropanecarbonyl)-piperidine-4-carbonyl]-piperidin-4-yl}-ethoxy)-nicotinonitrile]",1.1
5,"CC(Nc1ccc(C#N)cn1)[C@H]1CCN(C(=O)C2CCN(c3ccc(C#N)cn3)CC2)C[C@@H]1c1ccc(Cl)cc1 (mixture of isomers) [Example 68, 4-{(3S,4S)-3-(4-Chloro-phenyl)-4-[(SR)-1-(5-cyano-pyridin-2-ylamino)-ethyl]-piperidine-1-carbonyl}-3,4,5,6-tetrahydro-2H-[1,2′]bipyridinyl-5′-carbonitrile]",1.4
6,"C[C@H](Oc1ccc(Cl)cn1)[C@H]1CCN(C(=O)N2CCN(S(C)(=O)=O)CC2)C[C@@H]1c1ccc(Cl)cc1 [Example 14, {(3S,4S)-3-(4-Chloro-phenyl)-4-[(S)-1-(5-chloro-pyridin-2-yloxy)-ethyl]-piperidin-1-yl}-(4-methanesulfonyl-piperazin-1-yl)-methanone]",2.6
7,"C[C@H](Oc1ccc(Cl)cc1)[C@H]1CCN(C(=O)C2CCN(c3ccc(C#N)cn3)CC2)C[C@@H]1c1ccc(Cl)cc1 [Example 55, 4-[(3S,4S)-4-[(S)-1-(4-Chloro-phenoxy)-ethyl]-3-(4-chloro-phenyl)-piperidine-1-carbonyl]-3,4,5,6-tetrahydro-2H-[1,2′]bipyridinyl-5′-carbonitrile]",0.9
8,"C[C@H](Oc1cccc(F)c1)[C@H]1CCN(C(=O)C2CCN(c3ccc(C#N)cn3)CC2)C[C@@H]1c1ccc(Cl)cc1 [Example 56, 4-{(3S,4S)-3-(4-Chloro-phenyl)-4-[(S)-1-(3-fluoro-phenoxy)-ethyl]-piperidine-1-carbonyl}-3,4,5,6-tetrahydro-2H-[1,2′]bipyridinyl-5′-carbonitrile]",3.8
9,"C[C@H](Oc1ccc(Cl)cn1)[C@H]1CCN(C(=O)C2CCN(C(=O)C3(C)CC3)CC2)C[C@@H]1c1ccc(Cl)cc1 (stereo in doubt) [Example 7, (4-{(3S,4S)-3-(4-Chloro-phenyl)-4-[(S)-1-(5-chloro-pyridin-2-yloxy)-ethyl]-piperidine-1-carbonyl}-piperidin-1-yl)-(1-methyl-cyclopropyl)-methanone]",2.6

# The next lines start with the values.
row,Ki [nM],Compound
1,1.6,"C[C@H](Oc1ccc(C(F)(F)F)cn1)[C@H]1CCN(C(=O)C2CCN(C(=O)C3(C)CC3)CC2)C[C@@H]1c1ccc(Cl)cc1 [Example 16, (4-{(3S,4S)-3-(4-Chloro-phenyl)-4-[(S)-1-(5-trifluoromethyl-pyridin-2-yloxy)-ethyl]-piperidine-1-carbonyl}-piperidin-1-yl)-(1-methyl-cyclopropyl)-methanone]"
2,4.7,"C[C@H](Oc1ccc(C(F)(F)F)cn1)[C@H]1CCN(C(=O)N2CCN(S(C)(=O)=O)CC2)C[C@@H]1c1ccc(Cl)cc1 [Example 21, {(3S,4S)-3-(4-Chloro-phenyl)-4-[(S)-1-(5-trifluoromethyl-pyridin-2-yloxy)-ethyl]-piperidin-1-yl}-(4-methanesulfonyl-piperazin-1-yl)-methanone]"
3,1.5,"Cc1noc(-c2ccc(C(=O)N3CC[C@H]([C@H](C)Oc4ccc(C#N)cn4)[C@@H](c4ccc(Cl)cc4)C3)cc2)n1 [Example 25, 6-((S)-1-{(3S,4S)-3-(4-Chloro-phenyl)-1-[4-(3-methyl-[1,2,4]oxadiazol-5-yl)-benzoyl]-piperidin-4-yl}-ethoxy)-nicotinonitrile]"
4,1.8,"Cc1noc(-c2ccc(C(=O)N3CC[C@H]([C@H](C)Oc4ccc(Cl)cn4)[C@@H](c4ccc(Cl)cc4)C3)cc2)n1 [Example 11, {(3S,4S)-3-(4-Chloro-phenyl)-4-[(S)-1-(5-chloro-pyridin-2-yloxy)-ethyl]-piperidin-1-yl}-[4-(3-methyl-[1,2,4]oxadiazol-5-yl)-phenyl]-methanone]"
5,0.2,"C[C@H](Oc1ccc(C(F)(F)F)cn1)[C@H]1CCN(C(=O)C2CCN(c3ccc(C#N)cn3)CC2)C[C@@H]1c1ccc(Cl)cc1 [Example 20, 4-{(3S,4S)-3-(4-Chloro-phenyl)-4-[(S)-1-(5-trifluoromethyl-pyridin-2-yloxy)-ethyl]-piperidine-1-carbonyl}-3,4,5,6-tetrahydro-2H-[1,2′]bipyridinyl-5′-carbonitrile]"
6,0.6,"C[C@H](Oc1ccc(F)cn1)[C@H]1CCN(C(=O)C2CCN(c3ccc(C#N)cn3)CC2)C[C@@H]1c1ccc(Cl)cc1 [Example 52, 4-{(3S,4S)-3-(4-Chloro-phenyl)-4-[(S)-1-(5-fluoro-pyridin-2-yloxy)-ethyl]-piperidine-1-carbonyl}-3,4,5,6-tetrahydro-2H-[1,2′]bipyridinyl-5′-carbonitrile]"
7,3.6,"Cc1cc(C(=O)N2CC[C@H]([C@H](C)Oc3ccc(Cl)cn3)[C@@H](c3ccc(Cl)cc3)C2)cnn1 [Example 10, {(3S,4S)-3-(4-Chloro-phenyl)-4-[(S)-1-(5-chloro-pyridin-2-yloxy)-ethyl]-piperidin-1-yl}-(6-methyl-pyridazin-4-yl)-methanone]"
8,0.6,"C[C@H](Oc1ccc(F)cc1)[C@H]1CCN(C(=O)C2CCN(c3ccc(C#N)cn3)CC2)C[C@@H]1c1ccc(Cl)cc1 [Example 53, 4-{(3S,4S)-3-(4-Chloro-phenyl)-4-[(S)-1-(4-fluoro-phenoxy)-ethyl]-piperidine-1-carbonyl}-3,4,5,6-tetrahydro-2H-[1,2′]bipyridinyl-5′-carbonitrile]"
9,5.6,"Cc1cc(C(=O)N2CC[C@H]([C@H](C)Oc3ccc(C(F)(F)F)cn3)[C@@H](c3ccc(Cl)cc3)C2)cnn1 [Example 17, {(3S,4S)-3-(4-Chloro-phenyl)-4-[(S)-1-(5-trifluoromethyl-pyridin-2-yloxy)-ethyl]-piperidin-1-yl}-(6-methyl-pyridazin-4-yl)-methanone]"
10,1.2,"Cc1noc(-c2ccc(C(=O)N3CC[C@H]([C@H](C)Oc4ccc(C(F)(F)F)cn4)[C@@H](c4ccc(Cl)cc4)C3)cc2)n1 [Example 18, {(3S,4S)-3-(4-Chloro-phenyl)-4-[(S)-1-(5-trifluoromethyl-pyridin-2-yloxy)-ethyl]-piperidin-1-yl}-[4-(3-methyl-[1,2,4]oxadiazol-5-yl)-phenyl]-methanone]"
11,2,"Cc1ccc(O[C@@H](C)[C@H]2CCN(C(=O)C3CCN(c4ccc(C#N)cn4)CC3)C[C@@H]2c2ccc(Cl)cc2)nc1 [Example 58, 4-{(3S,4S)-3-(4-Chloro-phenyl)-4-[(S)-1-(5-methyl-pyridin-2-yloxy)-ethyl]piperidine-1-carbonyl}-3,4,5,6-tetrahydro-2H-[1,2′]bipyridinyl-5′-carbonitrile]"
